# Measured values taken from US9187397B2 (STC.UNM, priority 2004, dated 2015).
# Like-named read-outs stand apart in the source and are kept apart here.
# Experiments:
# [1] = biological target: glutathione S-transferase P1-1 (Homo sapiens (Human), UniProt P09211); experiment: GSTP1-1 enzyme inhibition assay (CDNB/GSH, 340 nm); assay type: biochemical; conditions: 1 mM CDNB, 1 mM GSH, pH 6.5; compared with curcumin
# Method: Kinetic analysis assays were conducted. […] GSTP1-1 activity was measured at pH 6.5 in 1 ml volumes of 20 mM potassium phosphate buffer containing 100 mM NaCl, 1 mM CDNB and 1 mM GSH. […] (Perkin/Elmer Lambda 2S spectrophotometer). These activities were plotted as percent of control (GSTP1-1 activity without inhibitors). Kinetic analysis (dissociation constants) of inhibitors was determined by linear regression analysis of the Dixon, plots. […] Ki's were calculated utilizing SigmaPlot's Enzyme Kinetics Module™ (Chicago, Ill., USA). […]
# These activities were plotted as percent of control (GSTP1-1 activity without inhibitors).
# [2] = system: AP-1; experiment: AP-1 luciferase reporter cellular assay (293/AP1-luc, PMA-stimulated); assay type: cell-based, human; conditions: for activity in the AP-1 cellular assay (screen): 15 μM, compared with curcumin; for IC50: Homo sapiens, inhibition of PMA-induced AP-1 activation, 293/AP1-luc cells, Table 10, read-out: AP-1 IC50
# Method: This cell line is obtained by co-transfection of pAP1-luc and pTK-hyg containing plasmids followed by the addition of hygromycin (200 μg/ml) to maintain cell selection.
# After 24 hr, the cells had reached approximately 60% confluency. […] Plate wells were gently washed with PBS, pH 7.4, and lysed with passive lysis buffer (1×, 100 μl, Promega). The subsequent chemiluminescent lysates were analyzed with the Luciferase Assay System (Promega) utilizing a TD-20/20 luminometer. The relative light units (photons) were determined by the addition of firefly luciferase substrate (75 μl) to cell lysate (10 μl). The light units were then normalized to the amount of protein in the well (mg/ml) with BCA™ Protein Assay Kit (Pierce) and standardized to percent of control (PMA).
# (§1) This cell line is stably transfected with a luciferase reporter controlled by an AP-1 dependent promoter. The cell is stimulated with phorbol ester which activates AP-1. AP-1 then binds to one of three promoter regions on the cells DNA leading to the production of a luciferase enzyme. Luciferin is added to the cell lysates and the luciferase enzyme catalyzes a cleavage of luciferin leading to the emission of light.
# [3] = Ferric Reducing/Anti-oxidant Power assay (FRAP assay); conditions: 10 μM in ethanol; compared with curcumin
# Method: Anti-oxidant activity was also measured in the Ferric reducing/anti-oxidant power assay (FRAP assay) in which the analogs are reacted with a ferric tripyridyltriazine complex. For the FRAP assay (Benzie et al., Meth. Enzymol. 1999, 299, 15-27), the ferric complex was prepared at room temperature by reaction of ferric chloride (16.7 mM) and 2,4,6-tripyridyl-s-triazine (8.33 mM) in acetate buffer (0.25 M) to pH 3.6. The FRAP reagent was used immediately after preparation. […] The reaction was mixed by vortexing, allowed to stabilize for 5 min and the absorbance recorded on a Perkin Elmer UV/Vis Lambda 2S. […] The synthetic analog of α-tocopherol (vitamin E), Trolox, was used as a reference standard (10 μM in ethanol).
# The second assay used, the FRAP assay, determines the analogs abilities to reduce a Fe(III) tripyridyltriazine complex to a Fe(II) tripyridyltriazine complex. The following FIGS. 3A-3C) show analogs active in the FRAP assay.
# [4] = Total Radical-trapping Anti-oxidant Parameter assay (TRAP assay); conditions: 10 μM in ethanol; compared with curcumin
# Method: This assay is also known as the Total radical-trapping anti-oxidant parameter assay (TRAP assay). For the TRAP assay (Re et al., Free Rad. Biol. […] The turquoise colored reaction was allowed to stabilize for 5 min and the absorbance monitored on a Perkin Elmer UV/Vis Lambda 2S. […] The following FIGS. 2A-2C) show the analogs active in the TRAP assay.
# [5] = system: NF-κB; experiment: NF-κB luciferase reporter cellular assay (293T/NF-κB-luc, TNFα-stimulated); assay type: cell-based, human; conditions: for inhibition of the activation of NF-κB by TNFα (screen): 10 μM, compared with curcumin; for IC50: Homo sapiens, HEK-293T, inhibition of TNFα-induced NF-κB activation
# Method: The cell line is derived from human 293T embryonic kidney cells expressing the large T antigen containing a chromosomal integration of a luciferase reporter construct regulated by 6 copies of the NF-κB response element (Panomics, Inc.). This stable clonal cell line is obtained by co-transfection of pNF-κB-luc and pTK-hyg containing plasmids followed by the addition of hygromycin (200 μg/ml) to maintain cell selection.
# The cell line was grown in a humidified atmosphere at 37° C. in 5% CO2/95% air and maintained in Dulbecco's Modified Eagle's Medium (DMEM-high glucose containing 4 mM glutamine) containing fetal bovine serum (FBS, 10%), sodium pyruvate (1 mM), penicillin (100 units/ml), streptomycin (100 μg/ml) and hygromycin (100 μg/m) to maintain cell selection (Gibco/Invitrogen).
# The 293T/NF-κB-luc cells were re-plated 24 hr prior to treatment, into 24-well cell culture plates in media without hygromycin, to prevent it from interfering with the assay. The cells were then allowed to grow and attach, to the wells, for 24 hr in a humidified atmosphere at 37° C. in 5% CO2/95% air. […] The cells then were placed again in a humidified atmosphere at 37° C. in 5% CO2/95% air for 7 hr. Plate wells were gently washed with PBS, pH 7.4, and lysed with passive lysis buffer (1×, 100 μl, Promega). The subsequent chemiluminescent lysates were analyzed with the Luciferase Assay System (Promega) utilizing a TD-20/20 luminometer. The relative light units (photons) were determined by the addition of firefly luciferase substrate (75 μl) to cell lysate (10 μl). The light units were then normalized to the amount of protein in the well (mg/ml) with BCA™ Protein Assay Kit (Pierce) and standardized to percent of control (TNFα).
# as §1, with “This assay utilized a commercially available cell line (Panomics 293T-luc cellular assay) developed for screening inhibitors of NF-κB. This” for “This”, “NF-κB” for “AP-1”, “tumor necrosis factor alpha (TNFα)” for “phorbol ester”, “NF-κB. NF-κB” for “AP-1. AP-1”, “six” for “three”, “cell's” for “cells”
# This cell line was developed by Panomics for screening potential inhibitors of NF-κB. Cells are stimulated with TNF-α to express luciferase, whose activity is monitored in a chemiluminometer.
# An NF-κB reporter stable cell line from human 293T embryonic kidney cells (293T/NFκB-luc) (Panomics) was grown in a humidified atmosphere at 37° C. in 5% CO2/95% air. The cells were maintained in Dulbecco's Modified Eagle's Medium (DMEM—high glucose containing 4 mM glutamine) supplemented with 10% fetal bovine serum (FBS), 1 mM sodium pyruvate, 100 units/ml penicillin, 100 μg/m streptomycin and 100 μg/ml hygromycin (Gibco/Invitrogen, Carlsbad, Calif.)) to maintain cell selection. One day prior to treatment, the 293T/NFκB-luc cells were plated into 24-well cell culture plates (Costar) at approximately 70% confluency in the above media without hygromycin. The following day cells were fed fresh media 1 hour prior to treatment. […] The cells were placed again in a humidified atmosphere at 37° C. in 5% CO2/95% air for 7 hours. Plate wells were gently washed with phosphate buffered saline, pH 7.4, and lysed with 1× passive lysis buffer (Promega). The subsequent lysates were analyzed with the Luciferase Assay System (Promega) utilizing a TD-20/20 luminometer (Turner Designs). The firefly luciferase relative light units were normalized to protein (mg/ml) with BCATM Protein Assay Kit (Pierce) and standardized to TNF-α control.
# [6] = biological target: Aβ oligomers and fibrils (Homo sapiens (Human), UniProt P05067); conditions: cited from earlier work
# [7] = Reactivity toward L-cysteine as nucleophile (absorbance 425 nm); assay type: physicochemical; conditions: 1 mM L-cysteine in sodium phosphate buffer, pH 7; read-out: t1/2 of absorbance quenching by L-cysteine
# Method: Natural log values were determined based on 1st order kinetics.
# Weber et al., (2005) Bioorg Med Chem 13, 3811-3820. These groups potentially serve as Michael acceptors which are chemically reactive and can form undesirable covalent modifications with biomolecules. Michael acceptors are generally thought to be poor drug compounds because of their high reactivity toward nucleophilies.
# These groups potentially serve as Michael acceptors which are a chemically reactive species that can form undesirable covalent modifications with binding targets. […] Michael acceptors are generally thought to be poor drug compounds because of their high reactivity toward nucleophiles. […] In addition, at or below neutral pH, primary amino groups are predominantly in their protonated form and therefore weak nucleophiles that are unlikely to react to any significant extent with curcumin.
# Sequence of Aβ oligomers and fibrils (P05067 672-711): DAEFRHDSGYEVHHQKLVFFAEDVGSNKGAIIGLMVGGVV
# Sequence of glutathione S-transferase P1-1 (P09211 2-210): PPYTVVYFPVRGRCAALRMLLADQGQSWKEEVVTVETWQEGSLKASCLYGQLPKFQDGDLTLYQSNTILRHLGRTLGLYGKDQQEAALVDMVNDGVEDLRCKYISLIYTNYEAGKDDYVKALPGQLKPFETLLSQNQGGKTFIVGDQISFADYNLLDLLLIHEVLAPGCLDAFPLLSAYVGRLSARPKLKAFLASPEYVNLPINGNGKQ
compound,measurement,setting,value
O=C(/C=C(O)/C=C/c1ccccc1)/C=C/c1ccccc1 [3b],activity in the GSTP1-1 screening assay,[1],more active than curcumin
COc1ccccc1/C=C/C(=O)/C=C(O)/C=C/c1ccccc1OC [3c],activity in the GSTP1-1 screening assay,[1],more active than curcumin
CC(C(=O)C=Cc1ccccc1)=C(O)C=Cc1ccccc1 [6b],activity in the GSTP1-1 screening assay,[1],more active than curcumin
O=C(/C=C/c1ccccc1)/C(Cc1ccccc1)=C(O)/C=C/c1ccccc1 [9b],activity in the AP-1 cellular assay (screen),[2],active
same,activity in the GSTP1-1 screening assay,[1],more active than curcumin
O=C(/C=C/c1ccccc1)C(Cc1ccccc1)(Cc1ccccc1)C(=O)/C=C/c1ccccc1 [12b],activity in the GSTP1-1 screening assay,[1],more active than curcumin
Cc1ccc(/C=C/C(=O)/C=C/c2ccc(C)cc2)cc1 [20aa],activity in the GSTP1-1 screening assay,[1],better inhibitory activity than curcumin
Cc1cccc(/C=C/C(=O)/C=C/c2cccc(C)c2)c1 [20ab],activity in the GSTP1-1 screening assay,[1],better inhibitory activity than curcumin
O=C(/C=C/c1ccccc1)/C=C/c1ccccc1 [20b],activity in the GSTP1-1 screening assay,[1],better inhibitory activity than curcumin
O=C(/C=C/c1ccc(O)cc1)/C=C/c1ccc(O)cc1 [20f],activity in the GSTP1-1 screening assay,[1],better inhibitory activity than curcumin
O=C(/C=C/c1cccc(O)c1)/C=C/c1cccc(O)c1 [20p],activity in the GSTP1-1 screening assay,[1],better inhibitory activity than curcumin
O=C(/C=C/c1ccc(Cl)cc1)/C=C/c1ccc(Cl)cc1 [20x],activity in the GSTP1-1 screening assay,[1],better inhibitory activity than curcumin
O=C(/C=C/c1cccc(Cl)c1)/C=C/c1cccc(Cl)c1 [20y],activity in the GSTP1-1 screening assay,[1],better inhibitory activity than curcumin
O=C(/C=C/c1ccccc1Cl)/C=C/c1ccccc1Cl [20z],activity in the GSTP1-1 screening assay,[1],better inhibitory activity than curcumin
COc1cc(/C=C/C(=O)c2ccc(O)c(OC)c2)ccc1O [45a],activity in the FRAP assay,[3],active
same,activity in the TRAP assay,[4],more active than curcumin
same,activity in the AP-1 cellular assay (screen),[2],most active
same,inhibition of the activation of NF-κB by TNFα (screen),[5],more active than curcumin
"COc1cc(/C=C/C(=O)/C=C(O)/C=C/c2ccc(O)c(OC)c2)ccc1O [analog 3a, 1,7-Bis(4-hydroxy-3-methoxyphenyl)-1,6-heptadiene-3,5-dione]",IC50 for disaggregation of preformed fibrils,[6]; in vitro,1.0 µM
same,IC50 for fibril inhibition,[6]; in vitro,0.8 µM
same,"IC50 for Aβ oligomerization reported by Yang, et al.",[6]; non-biotinylated Aβ(1-40),~1 µM
same,half-life at 20 μM,[7],7.2 min
O=C(/C=C/c1ccncc1)/C=C/c1ccncc1 [compound 29],activity in the AP-1 cellular assay (screen),[2],more active than curcumin
same,IC50,[2],8.2 µM
same,inhibition of the activation of NF-κB by TNFα (screen),[5],more active than curcumin
same,activity in the GSTP1-1 screening assay,[1],better inhibitory activity than curcumin
O=C(/C=C/c1cccnc1)/C=C/c1cccnc1 [compound 31],activity in the AP-1 cellular assay (screen),[2],more active than curcumin
same,IC50,[2],4.1 µM
same,inhibition of the activation of NF-κB by TNFα (screen),[5],more active than curcumin
same,IC50,"[5]; 293T/NF-κB-luc cells, Table 5, read-out: IC50",3.4 µM
same,IC50,"[5]; Table 10, read-out: NF-κB IC50",3.4 µM
same,activity in the GSTP1-1 screening assay,[1],better inhibitory activity than curcumin
